Measurements taken from PubChem BioAssay AID1963975 (Molecular Pharmacology Branch, DTP, NCI, 2024).

System: 624824-186-R-J2-PDC multicell spheroids, viability
Test: Anticancer human tumor 624824-186-R-J2-PDC patient-derived colon adenocarcinoma cell line growth inhibition [PI3K]
Conditions: for IC50: curve of first compound; for viability, T/C: stronger effect = lower value
Method in brief: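 Stroma-containing spheroids: tumor line, pooled-donor HUVEC, hMSC. Treatments: targeted agents with PI3K inhibitors. Dosing: clinically relevant, half-log spacing, 10 microM ceiling without known Cmax. Read-out: cell viability.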

[1] = second compound 0.0316 µM, first compound 0.0316 µM
[2] = second compound 0.0316 µM, first compound 0.1 µM
[3] = second compound 0.0316 µM, first compound 0.316 µM
[4] = second compound 0.0316 µM, first compound 1 µM
[5] = second compound 0.0316 µM, first compound 3.16 µM
[6] = second compound 0.0316 µM, first compound 10 µM
[7] = second compound 0.1 µM, first compound 0.0316 µM
[8] = second compound 0.1 µM, first compound 0.1 µM
[9] = second compound 0.1 µM, first compound 0.316 µM
[10] = second compound 0.1 µM, first compound 1 µM
[11] = second compound 0.1 µM, first compound 3.16 µM
[12] = second compound 0.1 µM, first compound 10 µM
[13] = second compound 0.316 µM, first compound 0.0316 µM
[14] = second compound 0.316 µM, first compound 0.1 µM
[15] = second compound 0.316 µM, first compound 0.316 µM
[16] = second compound 0.316 µM, first compound 1 µM
[17] = second compound 0.316 µM, first compound 3.16 µM
[18] = second compound 0.316 µM, first compound 10 µM
[19] = second compound 1 µM, first compound 0.0316 µM
[20] = second compound 1 µM, first compound 0.1 µM
[21] = second compound 1 µM, first compound 0.316 µM
[22] = second compound 1 µM, first compound 1 µM
[23] = second compound 1 µM, first compound 3.16 µM
[24] = second compound 1 µM, first compound 10 µM
[25] = second compound 3.16 µM, first compound 0.0316 µM
[26] = second compound 3.16 µM, first compound 0.1 µM
[27] = second compound 3.16 µM, first compound 0.316 µM
[28] = second compound 3.16 µM, first compound 1 µM
[29] = second compound 3.16 µM, first compound 3.16 µM
[30] = second compound 3.16 µM, first compound 10 µM
[31] = second compound 10 µM, first compound 0.0316 µM
[32] = second compound 10 µM, first compound 0.1 µM
[33] = second compound 10 µM, first compound 0.316 µM
[34] = second compound 10 µM, first compound 1 µM
[35] = second compound 10 µM, first compound 3.16 µM
[36] = second compound 10 µM, first compound 10 µM
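Further: spheroids exposed to agents for 7 days before viability read.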
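Wherever viability, T/C is given: 100% = DMSO vehicle treated spheroids.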

Compound: Cn1ncc(Cl)c1-c1cc(C(=O)NC(CN)Cc2cccc(F)c2)sc1Cl (centres undefined) + Cc1nc(NC(=O)N2CCCC2C(N)=O)sc1-c1ccnc(C(C)(C)C(F)(F)F)c1
- IC50 (second compound 0.0316 µM): > 10 µM
- IC50 (second compound 0.1 µM): 9.82 µM
- IC50 (second compound 0.316 µM): 8.5 µM
- IC50 (second compound 1 µM): 8.01 µM
- IC50 (second compound 3.16 µM): 4.42 µM
- IC50 (second compound 10 µM): 3.02 µM
- viability, T/C [1]: 58.2%
- viability, T/C [2]: 80.2%
- viability, T/C [3]: 77.9%
- viability, T/C [4]: 82.1%
- viability, T/C [5]: 62.6%
- viability, T/C [6]: 56.1%
- viability, T/C [7]: 78.9%
- viability, T/C [8]: 84.3%
- viability, T/C [9]: 70.5%
- viability, T/C [10]: 75.2%
- viability, T/C [11]: 64.9%
- viability, T/C [12]: 49.2%
- viability, T/C [13]: 88.5%
- viability, T/C [14]: 79%
- viability, T/C [15]: 87%
- viability, T/C [16]: 80%
- viability, T/C [17]: 63.5%
- viability, T/C [18]: 47.8%
- viability, T/C [19]: 70.6%
- viability, T/C [20]: 77.8%
- viability, T/C [21]: 86.6%
- viability, T/C [22]: 74%
- viability, T/C [23]: 63.5%
- viability, T/C [24]: 46.8%
- viability, T/C [25]: 84.1%
- viability, T/C [26]: 84.2%
- viability, T/C [27]: 71.1%
- viability, T/C [28]: 62.8%
- viability, T/C [29]: 62.6%
- viability, T/C [30]: 34.7%
- viability, T/C [31]: 80.7%
- viability, T/C [32]: 73.3%
- viability, T/C [33]: 64%
- viability, T/C [34]: 66.8%
- viability, T/C [35]: 49.1%
- viability, T/C [36]: 30.9%

Compound: Cn1nccc1Nc1nccc(-c2ccn(C(CO)c3ccc(Cl)c(F)c3)c(=O)c2)n1 (centres undefined) + Cc1nc(NC(=O)N2CCCC2C(N)=O)sc1-c1ccnc(C(C)(C)C(F)(F)F)c1
- IC50 (second compound 0.0316 µM): > 10 µM
- IC50 (second compound 0.1 µM): > 10 µM
- IC50 (second compound 0.316 µM): > 10 µM
- IC50 (second compound 1 µM): > 10 µM
- IC50 (second compound 3.16 µM): 1.56 µM
- IC50 (second compound 10 µM): 0.276 µM
- viability, T/C [1]: 88.2%
- viability, T/C [2]: 79.8%
- viability, T/C [3]: 72.2%
- viability, T/C [4]: 92%
- viability, T/C [5]: 95.7%
- viability, T/C [6]: 101%
- viability, T/C [7]: 68.3%
- viability, T/C [8]: 68.6%
- viability, T/C [9]: 78.5%
- viability, T/C [10]: 81.4%
- viability, T/C [11]: 108%
- viability, T/C [12]: 83.2%
- viability, T/C [13]: 90.1%
- viability, T/C [14]: 72.8%
- viability, T/C [15]: 74%
- viability, T/C [16]: 91.9%
- viability, T/C [17]: 96.3%
- viability, T/C [18]: 81.9%
- viability, T/C [19]: 82.9%
- viability, T/C [20]: 79%
- viability, T/C [21]: 65.5%
- viability, T/C [22]: 74.9%
- viability, T/C [23]: 76.3%
- viability, T/C [24]: 52.3%
- viability, T/C [25]: 80.5%
- viability, T/C [26]: 61.6%
- viability, T/C [27]: 65%
- viability, T/C [28]: 54.6%
- viability, T/C [29]: 44.2%
- viability, T/C [30]: 37.3%
- viability, T/C [31]: 66.4%
- viability, T/C [32]: 58.6%
- viability, T/C [33]: 47.8%
- viability, T/C [34]: 37.8%
- viability, T/C [35]: 19.2%
- viability, T/C [36]: 5.96%
